What all share (type): in vitro ADME
Data set [1] is described as follows: Liver microsome stability experiment (human). The following applies: for CLint scaled at 1 µM: human, liver microsomes, pH 7.4, Human liver microsomes; for half-life at 1 µM: pH 7.4, Human liver microsomes. As to the method: (§1) This experiment aimed to evaluate the phase I metabolic stability of the compounds of the present disclosure in liver microsomes of SD rats, beagle dogs, cynomolgus monkeys, and humans.
(§2) • (1) Buffer preparation: 73.21 g of dipotassium hydrogen phosphate trihydrate and 10.78 g of potassium dihydrogen phosphate were dissolved in 4000 mL of ultrapure water. The pH of the solution was adjusted to within 7.40 ± 0.10 using 10% phosphoric acid or 1 M potassium hydroxide, resulting in a final concentration of 100 mM. • (2) Solution preparation and dilution: Stock solutions of the test compounds at a concentration of 10 mM were prepared in dimethyl sulfoxide (DMSO) and stored at 4 °C, and they were diluted into 100 µM working solutions with pure acetonitrile when used. A stock solution of the control compound testosterone at a concentration of 10 mM was prepared in DMSO and stored at -20 °C, and it was diluted into a 400 µM working solution with pure acetonitrile when used. • (3) Termination solution preparation: The termination solution was an acetonitrile solution containing an internal standard (terfenadine). The prepared termination solution was stored in a refrigerator at 2-8 °C. • (4) Liver microsome solution preparation: Liver microsomes from various species (SD rat, beagle dog, cynomolgus monkey, and human) were diluted into 20× working solutions using 100 mM potassium phosphate buffer. The final concentration of the liver microsomes in the reaction system was 0.5 mg/mL. • (5) Reduced nicotinamide adenine dinucleotide phosphate (NADPH) regeneration system preparation: Appropriate amounts of nicotinamide adenine dinucleotide phosphate (NADP), glucose-6-phosphate (G6P), magnesium chloride (MgCl2), and glucose-6-phosphate dehydrogenase (G6PDH) were weighed to prepare stock solutions at concentrations of 65.33 mM, 330 mM, 300 mM, and 250 Units/mL, respectively. The four stock solutions described above were each added to an appropriate amount of buffer, and the mixture was mixed well by gently inverting up and down. The final concentrations of NADP, G6P, MgCl2, and G6PDH in the NADPH regeneration system were 2.65 mM, 10.2 mM, 6.12 mM, and 2.45 Units/mL, respectively. • (6) Incubation process: The incubation was completed in 96-well plates. Several incubation plates were prepared and named T0, T5, T10, T20, T40, T60, and NCF60, respectively. The first 6 plates corresponded to reaction time points of 0 min, 5 min, 10 min, 20 min, 40 min, and 60 min, respectively. The NCF60 plate was incubated for 60 min with potassium phosphate buffer replacing the NADPH regeneration system solution. Samples under all conditions were prepared in triplicate.
(§3) 2 µL of the test compound or control compound and 100 µL of microsome working solution (containing 1 mg/mL liver microsome protein) were added to each of the T0, T5, T10, T20, T40, T60, and NCF60 plates, and only the microsome working solution was added to the Blank 60 plate. The plates described above were then pre-incubated in a 37 °C water bath for about 10 min.
(§4) After the pre-incubation was completed, 98 µL of the NADPH regeneration system working solution was added to each sample well except for the NCF60 plate and the T0 plate to initiate the reaction, and 98 µL of potassium phosphate buffer was added to each well of the NCF60 plate. Therefore, for the sample wells containing the test sample or control substance working solution, the final concentrations of TC and testosterone in the reaction were 1 µM and 4 µM, respectively, the concentration of liver microsomes was 0.5 mg/mL, and the final concentrations of DMSO and acetonitrile in the reaction system were 0.01% (v/v) and 0.99% (v/v), respectively.
(§5) After incubation for an appropriate time (e.g., 5 min, 10 min, 20 min, 40 min, and 60 min), 600 µL of a termination solution (an acetonitrile solution containing 100 ng/mL […]) was added to each test compound sample well and control compound sample well to terminate the reaction. […]
(Liver microsomes are a subcellular fraction often used to study metabolism.)

Data set [2] is described as follows: Liver microsome stability experiment (beagle dog). The conditions noted are these: for CLint scaled at 1 µM: beagle, dog, liver microsomes, pH 7.4, Beagle dog liver microsomes; for half-life at 1 µM: pH 7.4, Beagle dog liver microsomes. As to the method: as §1, §2, §3, §4, §5
The nature of data set [3]: Liver microsome stability experiment (SD rat). The following applies: for CLint scaled at 1 µM: SD, rat, liver microsomes, pH 7.4, SD rat liver microsomes; for half-life at 1 µM: pH 7.4, SD rat liver microsomes. The method, then:
as §1, §2, §3, §4, §5

[4] abbreviates: 0.5 mg/mL, 1 µM, read-out: CL(liver).
[5] abbreviates: 0.5 mg/mL, 1 µM, read-out: CLint(liver).
[6] abbreviates: read-out: Clearance rate classification.

Some results are limits rather than exact numbers.

For `O=c1nc(OCc2cc(F)c(Oc3ccnc(C(F)(F)F)c3)c(F)c2)cc2n1C[C@H]1CCCN21` [Comparative Example 1, reference compound], the CLint scaled at 1 µM is 6.9 mL/min/kg in data set [1] (setting [4]); 10.3 mL/min/kg in data set [1] (setting [5]); 8.9 to 48.3 mL/min/kg in data set [1] (setting [6]); 10.5 mL/min/kg in data set [2] (setting [4]); 15.8 mL/min/kg in data set [2] (setting [5]); 13.2 to 72.1 mL/min/kg in data set [2] (setting [6]). Also, the values for the CLint scaled at 1 µM in data set [3] (setting [4]), in data set [3] (setting [5]) and in data set [3] (setting [6]) were 18.9 mL/min/kg, 28.7 mL/min/kg and 23.7 to 129 mL/min/kg, respectively. The half-life at 1 µM came out at 2.01 h in data set [1] (0.5 mg/mL, 1 µM); 2.1 h in data set [2] (0.5 mg/mL, 1 µM); 1.45 h in data set [3] (0.5 mg/mL, 1 µM).

Turning to `O=c1nc(OCc2cc(F)c(Oc3ccnc(C(F)(F)F)c3)c(F)c2)cc2n1C[C@H]1CCN21` [Example 34-R], the CLint scaled at 1 µM in data set [1] (setting [4]) was less than 5.06 mL/min/kg; in data set [1] (setting [5]) it was less than 6.69 mL/min/kg; in data set [1] (setting [6]), no more than 8.9 mL/min/kg; in data set [2] (setting [4]), less than 8 mL/min/kg; in data set [2] (setting [5]) it was less than 10.7 mL/min/kg; in data set [2] (setting [6]) it was no more than 13.2 mL/min/kg. For the same molecule, the CLint scaled at 1 µM in data set [3] (setting [4]) is less than 10.8 mL/min/kg; in data set [3] (setting [5]), less than 13.4 mL/min/kg; in data set [3] (setting [6]) it was no more than 23.7 mL/min/kg. Besides, the half-life at 1 µM in data set [1] (0.5 mg/mL, 1 µM) is greater than 3.11 h; in data set [2] (0.5 mg/mL, 1 µM), greater than 3.11 h; in data set [3] (0.5 mg/mL, 1 µM), greater than 3.11 h.

As usually defined, the half-life is the time needed for the level to fall by half in the phase considered.

(Values after patent publication EP4748841A1, “BICYCLO[5,6] IMIDAZOLE PYRIMIDONE DERIVATIVE AND PREPARATION METHOD THEREFOR AND USE THEREOF” (Shujing Biopharma Co., Ltd, priority 2023, dated 2025).)
